Read-outs that look alike come from different tables or passages of the source.
Legend:
[1] = target: T1, EIF2AK3 (PERK) catalytic domain (amino acids 536-1116) (Homo sapiens, UniProt Q9NZJ5); experiment: PERK in vitro activity assay (isolated), TR-FRET kinase assay; assay type: biochemical; conditions: isolated PERK enzyme, 1.5 μM ATP; read-out: Biochemical IC50
T1 construct: EIF2AK3 (PERK) catalytic domain (amino acids 536-1116)
T1 sequence (Q9NZJ5 536-1116): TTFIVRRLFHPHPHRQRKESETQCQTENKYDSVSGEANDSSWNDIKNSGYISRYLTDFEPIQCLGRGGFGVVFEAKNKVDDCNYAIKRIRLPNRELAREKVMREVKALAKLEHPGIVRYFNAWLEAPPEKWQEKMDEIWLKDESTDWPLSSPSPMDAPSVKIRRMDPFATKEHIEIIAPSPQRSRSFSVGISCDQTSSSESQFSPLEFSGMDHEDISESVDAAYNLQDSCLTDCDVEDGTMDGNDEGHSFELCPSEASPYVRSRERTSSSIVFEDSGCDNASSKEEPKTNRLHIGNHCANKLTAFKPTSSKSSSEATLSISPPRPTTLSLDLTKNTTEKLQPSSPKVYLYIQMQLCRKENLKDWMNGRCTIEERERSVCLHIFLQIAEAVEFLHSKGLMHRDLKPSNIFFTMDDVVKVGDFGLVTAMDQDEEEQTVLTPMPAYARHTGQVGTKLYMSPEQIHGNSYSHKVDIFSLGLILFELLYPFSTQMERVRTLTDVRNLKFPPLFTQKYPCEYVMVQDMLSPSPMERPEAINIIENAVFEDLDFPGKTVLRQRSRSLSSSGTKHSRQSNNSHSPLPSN
How it was run: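 TR-FRET read-out: after EDTA stop (10 mM final), Tb-labelled phospho-eIF2a antibody (2 nM) for 90 min; IC50 via 4-parameter nonlinear fit. Reaction: PERK aa 536-1116, GFP-eIF2a 100-200 nM, HEPES pH 7.5 with MgCl2/EGTA/Brij-35, 45 min, room temperature, started by enzyme.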

[2] = tested on: GFP-eIF2α in HEK293 cells; experiment: PERK cellular assay, TR-FRET in HEK293-EGFP-eIF2a cells after tunicamycin-induced ER stress; assay type: cell-based; conditions: HEK293-EGFP-eIF2a cells, tunicamycin 2 hours, read-out: Cellular eIF2α IC50
How it was run: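 Compounds were added 30 min before a 2 h tunicamycin ([…]) challenge of lentivirally made GFP-eIF2α HEK293 cells, 5000/well; lysate TR-FRET ratio was the read-out.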

| SMILES | IC50 [1] | IC50 ([2]; Homo sapiens, HEK293, 2 h) | IC50 [2] |
| --- | --- | --- | --- |
| Cc1cc(NC(=O)CC2CCCCC2)ccc1-c1cn(C)c2ncnc(N)c12 [Example 166, N-(4-(4-amino-7-methyl-7H-pyrrolo[2,3-d]pyrimidin-5-yl)-3-methylphenyl)-2-cyclohexyl-acetamide] | 1 to 25 nM | 101 to 250 nM | – |
| Cn1cc(-c2ccc(NC(=O)C(O)c3cccc(F)c3)cc2F)c2c(N)ncnc21 (single isomer, unassigned) [Example 4, N-(4-(4-amino-7-methyl-7H-pyrrolo[2,3-d]pyrimidin-5-yl)-3-fluorophenyl)-2-(3-fluorophenyl)-2-hydroxyacetamide] | 1 to 25 nM | – | 1 to 25 nM |
| Cc1nc(N)c2c(-c3ccc(NC(=O)C(O)c4cccc(F)c4)nc3C)cn(C)c2n1 (centres unmarked) [Example 127, N-(5-(4-amino-2,7-dimethyl-7H-pyrrolo[2,3-d]pyrimidin-5-yl)-6-methylpyridin-2-yl)-2-(3-fluorophenyl)-2-hydroxyacetamide] | 1 to 25 nM | – | 101 to 250 nM |
| Cc1nc(N)c2c(-c3ccc(NC(=O)C(O)c4cc(F)cc(F)c4)c(F)c3F)cn(C)c2n1 (single isomer, unassigned) [Example 114, N-(4-(4-amino-2,7-dimethyl-7H-pyrrolo[2,3-d]pyrimidin-5-yl)-2,3-difluorophenyl)-2-(3,5-difluorophenyl)-2-hydroxyacetamide] | 251 to 500 nM | – | 1000 to 2000 nM |
| Cc1cc(NC(=O)CC2CCC2)ccc1-c1cn(C)c2ncnc(N)c12 [Example 164, N-(4-(4-amino-7-methyl-7H-pyrrolo[2,3-d]pyrimidin-5-yl)-3-methylphenyl)-2-cyclobutyl-acetamide] | 51 to 100 nM | 2000 to 3000 nM | – |
| Cc1cc(NC(=O)Cc2ccc(F)cc2)ccc1-c1cn(C)c2ncnc(N)c12 [Example 140, N-(4-(4-amino-7-methyl-7H-pyrrolo[2,3-d]pyrimidin-5-yl)-3-methylphenyl)-2-(4-fluorophenyl)acetamide] | 1 to 25 nM | 26 to 50 nM | – |
| Cc1cc(NC(=O)C(O)c2cccc(F)c2)c(F)cc1-c1cn(C)c2ncnc(N)c12 (centres unmarked) [Example 119, N-(4-(4-amino-7-methyl-7H-pyrrolo[2,3-d]pyrimidin-5-yl)-2-fluoro-5-methylphenyl)-2-(3-fluorophenyl)-2-hydroxyacetamide] | 1 to 25 nM | – | 1 to 25 nM |
| Cn1cc(-c2ccc(NC(=O)C(O)c3cccc(F)c3)cc2)c2c(N)ncnc21 (centres unmarked) [Example 29, N-(4-(4-amino-7-methyl-7H-pyrrolo[2,3-d]pyrimidin-5-yl)phenyl)-2-(3-fluorophenyl)-2-hydroxyacetamide] | 1 to 25 nM | – | 1 to 25 nM |
| Cc1cc(NC(=O)C(O)c2cccc(F)c2)c(F)cc1-c1cn(C)c2ncnc(N)c12 (centres unmarked) [Example 120, N-(4-(4-amino-7-methyl-7H-pyrrolo[2,3-d]pyrimidin-5-yl)-2-fluoro-5-methylphenyl)-2-(3-fluorophenyl)-2-hydroxyacetamide] | 51 to 100 nM | – | 251 to 500 nM |
| Cc1nc(N)c2c(-c3ccc(NC(=O)C(O)c4cccc(F)c4)c(F)c3)cn(C)c2n1 (centres unmarked) [Example 90, N-(4-(4-amino-2,7-dimethyl-7H-pyrrolo[2,3-d]pyrimidin-5-yl)-2-fluorophenyl)-2-(3-fluorophenyl)-2-hydroxyacetamide] | 1 to 25 nM | – | 26 to 50 nM |
| Cc1cc(F)cc(C(O)C(=O)Nc2ccc(-c3cn(C)c4nc(C)nc(N)c34)c(F)c2)c1 (centres unmarked) [Example 85, N-(4-(4-amino-2,7-dimethyl-7H-pyrrolo[2,3-d]pyrimidin-5-yl)-3-fluorophenyl)-2-(3-fluoro-5-methylphenyl)-2-hydroxyacetamide] | 1 to 25 nM | – | 1 to 25 nM |
| Cc1nc(N)c2c(-c3ccc(NC(=O)C(O)c4cccc(F)c4)cc3OC(F)(F)F)cn(C)c2n1 (single isomer, unassigned) [Example 22, N-(4-(4-amino-2,7-dimethyl-7H-pyrrolo[2,3-d]pyrimidin-5-yl)-3-(trifluoromethoxy)phenyl)-2-(3-fluorophenyl)-2-hydroxyacetamide] | 101 to 250 nM | – | > 5000 nM |
| Cc1nc(N)c2c(-c3ccc(NC(=O)C(O)c4cccc(Cl)c4)c(F)c3F)cn(C)c2n1 (centres unmarked) [Example 112, N-(4-(4-amino-2,7-dimethyl-7H-pyrrolo[2,3-d]pyrimidin-5-yl)-2,3-difluorophenyl)-2-(3-chlorophenyl)-2-hydroxyacetamide] | 101 to 250 nM | – | 501 to 1000 nM |
| Cc1nc(N)c2c(-c3ccc(NC(=O)C(O)c4cccc(Cl)c4)cc3F)cn(C)c2n1 (centres unmarked) [Example 82, N-(4-(4-amino-2,7-dimethyl-7H-pyrrolo[2,3-d]pyrimidin-5-yl)-3-fluorophenyl)-2-(3-chlorophenyl)-2-hydroxyacetamide] | 1 to 25 nM | – | 1 to 25 nM |
| Cc1nc(N)c2c(-c3ccc(NC(=O)C(O)c4ccccc4F)cc3C)cn(C)c2n1 (centres unmarked) [Example 32, N-(4-(4-amino-2,7-dimethyl-7H-pyrrolo[2,3-d]pyrimidin-5-yl)-3-methylphenyl)-2-(2-fluorophenyl)-2-hydroxyacetamide] | 101 to 250 nM | 251 to 500 nM | – |
| CCc1cc(NC(=O)C(O)c2cccc(F)c2)ccc1-c1cn(C)c2ncnc(N)c12 (centres unmarked) [Example 17, N-(4-(4-amino-7-methyl-7H-pyrrolo[2,3-d]pyrimidin-5-yl)-3-ethylphenyl)-2-(3-fluorophenyl)-2-hydroxyacetamide] | 1 to 25 nM | 1 to 25 nM | – |
| Cc1cc(NC(=O)Cc2cccc3ccccc23)ccc1-c1cn(C)c2ncnc(N)c12 [Example 153, N-(4-(4-amino-7-methyl-7H-pyrrolo[2,3-d]pyrimidin-5-yl)-3-methylphenyl)-2-(naphthalen-1-yl)acetamide] | 1 to 25 nM | 26 to 50 nM | – |
| Cc1nc(N)c2c(-c3ccc(NC(=O)C(O)c4cccc(C(F)(F)F)c4)c(F)c3F)cn(C)c2n1 (centres unmarked) [Example 107, N-(4-(4-amino-2,7-dimethyl-7H-pyrrolo[2,3-d]pyrimidin-5-yl)-2,3-difluorophenyl)-2-hydroxy-2-(3-(trifluoromethyl)phenyl)acetamide] | 1 to 25 nM | – | 1 to 25 nM |
| Cc1cc(NC(=O)C(O)c2ccccc2C(F)(F)F)ccc1-c1cn(C)c2ncnc(N)c12 (centres unmarked) [Example 45, N-(4-(4-amino-7-methyl-7H-pyrrolo[2,3-d]pyrimidin-5-yl)-3-methylphenyl)-2-hydroxy-2-(2-(trifluoromethyl)phenyl)acetamide] | 1 to 25 nM | 101 to 250 nM | – |
| Cc1cc(F)cc(C(O)C(=O)Nc2ccc(-c3cn(C)c4nc(C)nc(N)c34)c(C)c2)c1 (centres unmarked) [Example 56, N-(4-(4-amino-2,7-dimethyl-7H-pyrrolo[2,3-d]pyrimidin-5-yl)-3-methylphenyl)-2-(3-fluoro-5-methylphenyl)-2-hydroxyacetamide] | 1 to 25 nM | – | 1 to 25 nM |
| Cc1nc(N)c2c(-c3ccc(NC(=O)C(O)c4cccc(C(F)(F)F)c4)cc3C)cn(C)c2n1 (centres unmarked) [Example 51, N-(4-(4-amino-2,7-dimethyl-7H-pyrrolo[2,3-d]pyrimidin-5-yl)-3-methylphenyl)-2-hydroxy-2-(3-(trifluoromethyl)phenyl)acetamide] | 101 to 250 nM | – | 501 to 1000 nM |
| Cc1nc(N)c2c(-c3ccc(NC(=O)C(O)c4cccc(F)c4)c(F)c3)cn(C)c2n1 (centres unmarked) [Example 89, N-(4-(4-amino-2,7-dimethyl-7H-pyrrolo[2,3-d]pyrimidin-5-yl)-2-fluorophenyl)-2-(3-fluorophenyl)-2-hydroxyacetamide] | 251 to 500 nM | – | 2000 to 3000 nM |
| CCc1cccc(C(O)C(=O)Nc2ccc(-c3cn(C)c4nc(C)nc(N)c34)c(F)c2)c1 (centres unmarked) [Example 75, N-(4-(4-amino-2,7-dimethyl-7H-pyrrolo[2,3-d]pyrimidin-5-yl)-3-fluorophenyl)-2-(3-ethylphenyl)-2-hydroxyacetamide] | 51 to 100 nM | – | 1000 to 2000 nM |
| Cc1nc(N)c2c(-c3ccc(NC(=O)C(O)c4cccc(C(F)(F)F)c4)cc3C)cn(C)c2n1 (centres unmarked) [Example 50, N-(4-(4-amino-2,7-dimethyl-7H-pyrrolo[2,3-d]pyrimidin-5-yl)-3-methylphenyl)-2-hydroxy-2-(3-(trifluoromethyl)phenyl)acetamide] | 1 to 25 nM | – | 1 to 25 nM |
| CCc1cccc(C(O)C(=O)Nc2ccc(-c3cn(C)c4nc(C)nc(N)c34)c(F)c2)c1 (centres unmarked) [Example 76, N-(4-(4-amino-2,7-dimethyl-7H-pyrrolo[2,3-d]pyrimidin-5-yl)-3-fluorophenyl)-2-(3-ethylphenyl)-2-hydroxyacetamide] | 1 to 25 nM | – | 1 to 25 nM |

Source: US20220356186A1, “PERK INHIBITING PYRROLOPYRIMIDINE COMPOUNDS” (HiberCell, Inc., priority 2019, published 2022)
